Measurements: ChEMBL document CHEMBL1201862, “PubChem BioAssay data set” (2004)
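Step 1: Grow cells in 96-well plates. Step 2: Expose to compound for 48 hours at 5 concentrations. Step 3: Interpolate endpoints linearly; if unreached, use highest concentration. Abbreviation: GI50, concentration required for 50% inhibition of growth.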 The source made the active and inactive calls. Rule as the data show it: active = GI50 up to about 1.1 µM and inactive = higher.

Legend:
Experiment in all cases: NCI-60 cell line screen, 48 h
[1] = test system: RXF 393
[2] = test system: UO-31
[3] = test system: SK-MEL-5
[4] = test system: M14
[5] = test system: OVCAR-3
[6] = test system: KM-20L2
[7] = test system: HCC 2998
[8] = test system: HOP-92
[9] = test system: SNB-78
[10] = test system: MOLT-4
[11] = test system: EKVX
[12] = test system: HT-29
[13] = test system: NCI-H226
[14] = test system: K562
[15] = test system: SNB-75
[16] = test system: KM12
[17] = test system: A549
[18] = test system: SNB-19
[19] = test system: HL-60
[20] = test system: UACC-62
[21] = test system: NCI-H23
[22] = test system: IGROV-1
[23] = test system: UACC-257
[24] = test system: SF-539
[25] = test system: A498
[26] = test system: HCT-116
[27] = test system: 786-0
[28] = test system: Malme-3M
[29] = test system: OVCAR-8
[30] = test system: SR
[31] = test system: OVCAR-4
[32] = test system: M19-MEL
[33] = test system: CCRF-CEM
[34] = test system: LXFL 529
[35] = test system: DLD-1
[36] = test system: HOP-62
[37] = test system: LOX IMVI
[38] = test system: SK-MEL-28
[39] = test system: NCI-H522
[40] = test system: DMS-114
[41] = test system: SK-OV-3
[42] = test system: NCI-H460
[43] = test system: CAKI-1
[44] = test system: SF-268
[45] = test system: XF498
[46] = test system: U-251
[47] = test system: COLO 205
[48] = test system: SW-620
[49] = test system: SN12C
[50] = test system: SF-295
[51] = test system: ACHN
[52] = test system: HOP-18
[53] = test system: TK-10
[54] = test system: HCT-15
[55] = test system: SK-MEL-2
[56] = test system: RPMI-8226
[57] = test system: OVCAR-5
[58] = test system: DMS-273

O=C(/C=C/c1ccc(O)cc1)c1cc(Cl)ccc1O
GI50 [1]: 28.9 µM (inactive)
GI50 [2]: 21.8 µM (inactive)
GI50 [3]: 37.2 µM (inactive)
GI50 [4]: 55.3 µM (inactive)
GI50 [5]: 28.2 µM (inactive)
GI50 [6]: > 100 µM (inactive)
GI50 [7]: 62.8 µM (inactive)
GI50 [8]: 85.3 µM (inactive)
GI50 [9]: 29.9 µM (inactive)
GI50 [10]: 16.6 µM (inactive)
GI50 [11]: 86.3 µM (inactive)
GI50 [12]: 34.5 µM (inactive)
GI50 [13]: 95.9 µM (inactive)
GI50 [14]: 24.1 µM (inactive)
GI50 [15]: 46.5 µM (inactive)
GI50 [16]: > 100 µM (inactive)
GI50 [17]: 39.9 µM (inactive)
GI50 [18]: 44.9 µM (inactive)
GI50 [19]: 17.8 µM (inactive)
GI50 [20]: 40.3 µM (inactive)
GI50 [21]: 40.5 µM (inactive)
GI50 [22]: 57.4 µM (inactive)
GI50 [23]: 71.8 µM (inactive)
GI50 [24]: 18.8 µM (inactive)
GI50 [25]: > 100 µM (inactive)
GI50 [26]: 22.6 µM (inactive)
GI50 [27]: 77.6 µM (inactive)
GI50 [28]: 47.2 µM (inactive)
GI50 [29]: 39.4 µM (inactive)
GI50 [30]: 16.9 µM (inactive)
GI50 [31]: 38.8 µM (inactive)
GI50 [32]: 72.1 µM (inactive)
GI50 [33]: 6.32 µM (inactive)
GI50 [34]: 42.5 µM (inactive)
GI50 [35]: 43.6 µM (inactive)
GI50 [36]: > 100 µM (inactive)
GI50 [37]: 18.7 µM (inactive)
GI50 [38]: 44.2 µM (inactive)
GI50 [39]: 17.2 µM (inactive)
GI50 [40]: 23.3 µM (inactive)
GI50 [41]: > 100 µM (inactive)
GI50 [42]: 50.2 µM (inactive)
GI50 [43]: > 100 µM (inactive)
GI50 [44]: 42.8 µM (inactive)
GI50 [45]: 23.7 µM (inactive)
GI50 [46]: 37.8 µM (inactive)
GI50 [47]: > 100 µM (inactive)
GI50 [48]: 35.4 µM (inactive)
GI50 [49]: 42.4 µM (inactive)
GI50 [50]: 35.2 µM (inactive)
GI50 [51]: 70.8 µM (inactive)
GI50 [52]: > 100 µM (inactive)
GI50 [53]: > 100 µM (inactive)

CC(C)(C)S(=O)OC12CC3CC(CC(C3)C1)C2 (stereo not given)
GI50 [1]: > 100 µM (inactive)
GI50 [2]: 92 µM (inactive)
GI50 [3]: > 100 µM (inactive)
GI50 [4]: > 100 µM (inactive)
GI50 [5]: > 100 µM (inactive)
GI50 [6]: > 100 µM (inactive)
GI50 [9]: > 100 µM (inactive)
GI50 [10]: > 100 µM (inactive)
GI50 [11]: > 100 µM (inactive)
GI50 [12]: > 100 µM (inactive)
GI50 [13]: > 100 µM (inactive)
GI50 [14]: > 10 µM (inactive)
GI50 [54]: > 100 µM
GI50 [15]: 33.8 µM (inactive)
GI50 [16]: > 10 µM (inactive)
GI50 [17]: > 100 µM (inactive)
GI50 [18]: > 100 µM (inactive)
GI50 [20]: > 100 µM (inactive)
GI50 [21]: > 100 µM (inactive)
GI50 [22]: > 100 µM (inactive)
GI50 [55]: > 100 µM (inactive)
GI50 [56]: > 100 µM (inactive)
GI50 [24]: > 100 µM (inactive)
GI50 [26]: > 100 µM (inactive)
GI50 [27]: > 100 µM (inactive)
GI50 [28]: > 100 µM (inactive)
GI50 [29]: > 100 µM (inactive)
GI50 [30]: > 100 µM (inactive)
GI50 [31]: > 100 µM (inactive)
GI50 [32]: > 100 µM (inactive)
GI50 [33]: > 100 µM (inactive)
GI50 [34]: > 100 µM (inactive)
GI50 [36]: > 100 µM (inactive)
GI50 [57]: > 100 µM (inactive)
GI50 [37]: > 100 µM (inactive)
GI50 [38]: > 100 µM (inactive)
GI50 [39]: > 100 µM (inactive)
GI50 [40]: > 100 µM (inactive)
GI50 [58]: > 100 µM (inactive)
GI50 [42]: > 100 µM (inactive)
GI50 [44]: > 100 µM (inactive)
GI50 [45]: > 100 µM (inactive)
GI50 [46]: > 100 µM (inactive)
GI50 [47]: > 100 µM (inactive)
GI50 [48]: > 100 µM (inactive)
GI50 [49]: > 100 µM (inactive)
GI50 [50]: > 100 µM (inactive)
GI50 [51]: > 100 µM (inactive)
GI50 [53]: > 100 µM (inactive)

Cc1cc(Cl)ccc1NC(=O)CC1SC(NC(=O)c2ccccc2Cl)=NC1=O (stereo not given)
GI50 [1]: 17.7 µM (inactive)
GI50 [2]: 21.6 µM (inactive)
GI50 [3]: 30.8 µM (inactive)
GI50 [4]: 17.1 µM (inactive)
GI50 [5]: 17.5 µM (inactive)
GI50 [6]: 28.6 µM (inactive)
GI50 [7]: 59.4 µM (inactive)
GI50 [8]: 18.8 µM (inactive)
GI50 [9]: 21.6 µM (inactive)
GI50 [10]: 2.89 µM (inactive)
GI50 [11]: > 100 µM (inactive)
GI50 [12]: 21.5 µM (inactive)
GI50 [13]: 25.2 µM (inactive)
GI50 [14]: 17 µM (inactive)
GI50 [54]: 19.1 µM
GI50 [15]: 19.2 µM (inactive)
GI50 [17]: 81.7 µM (inactive)
GI50 [18]: > 100 µM (inactive)
GI50 [19]: 2.19 µM (inactive)
GI50 [20]: 27.1 µM (inactive)
GI50 [21]: 50.2 µM (inactive)
GI50 [22]: 38.2 µM (inactive)
GI50 [23]: 16.3 µM (inactive)
GI50 [55]: 26.7 µM (inactive)
GI50 [56]: 15.2 µM (inactive)
GI50 [24]: 19.2 µM (inactive)
GI50 [25]: > 100 µM (inactive)
GI50 [26]: 17.9 µM (inactive)
GI50 [27]: 19 µM (inactive)
GI50 [28]: 19.7 µM (inactive)
GI50 [29]: > 100 µM (inactive)
GI50 [30]: 15.3 µM (inactive)
GI50 [31]: 20.9 µM (inactive)
GI50 [32]: 19.2 µM (inactive)
GI50 [33]: 2.86 µM (inactive)
GI50 [34]: 18 µM (inactive)
GI50 [35]: 19.1 µM (inactive)
GI50 [57]: 27.9 µM (inactive)
GI50 [37]: 21.9 µM (inactive)
GI50 [38]: 22 µM (inactive)
GI50 [39]: 15.1 µM (inactive)
GI50 [40]: 20.4 µM (inactive)
GI50 [58]: 18.9 µM (inactive)
GI50 [42]: > 100 µM (inactive)
GI50 [43]: 19.2 µM (inactive)
GI50 [44]: 16.9 µM (inactive)
GI50 [45]: 14.8 µM (inactive)
GI50 [46]: 15.7 µM (inactive)
GI50 [48]: 18 µM (inactive)
GI50 [49]: 17.7 µM (inactive)
GI50 [50]: > 100 µM (inactive)
GI50 [51]: 16.9 µM (inactive)
GI50 [53]: > 10 µM (inactive)
